From publication PMC5920042, “KH176 Safeguards Mitochondrial Diseased Cells from Redox Stress-Induced Cell Death by Interacting with the Thioredoxin System/Peroxiredoxin Enzyme Machinery” (Scientific Reports, 2018)

Assays:
[1] = test system: OXPHOS deficient cell lines; test: Redox Stress Survival assay, extended panel of OXPHOS deficient cell lines; assay type: cell-based; conditions: Homo sapiens, BSO insult, read-out: EC50 values, range over the panel of cell lines
Description: Cells were seeded at a density of 4 × 10^3 cells/well into 96-wells black plates and incubated for 24 h. To induce redox stress, semi-logarithmic dilutions of buthionine sulphoximine (BSO, #B2515, Sigma Aldrich) up to 100 µM were added to the cells in culture medium and incubated for 24 h. Cell viability was assessed by quantification of cellular conversion of Calcein AM into fluorescent Calcein. Briefly, after having discarded the BSO containing medium, cells were washed once with M199 without phenol red and loaded with 2 µM Calcein AM (#65-0853-39, Affimetrix eBioscience) in M199 without phenol red for 25 min. At the end of the incubation period, the excess of the dye was washed with M199 without phenol red and Calcein fluorescence was measured with a scanning microplate reader (BMG FLUOstar Omega; Ex. 480 nm, Em. 520 nm). For compound screening and target identification measurements cells were treated with 200 µM BSO alone or in co-incubation with semi-logarithmic dilutions of the test compound. Additionally, where indicated, increasing doses of Auranofin (AFN, #BML-EI206-0100, Enzo) or Aurothioglucose (ATG, #A0606, Sigma Aldrich) were co-incubated with BSO and the test compound. In all cases, cell viability was assessed 24 h after the treatment.

[2] = cited from earlier work
CCDC101 = target: T1, CCDC101 (Homo sapiens, UniProt Q96ES7); test: Surface Plasmon Resonance binding; conditions: SPR
T1 construct: purchased Abcam Ab124547
T1 sequence (Q96ES7 1-293): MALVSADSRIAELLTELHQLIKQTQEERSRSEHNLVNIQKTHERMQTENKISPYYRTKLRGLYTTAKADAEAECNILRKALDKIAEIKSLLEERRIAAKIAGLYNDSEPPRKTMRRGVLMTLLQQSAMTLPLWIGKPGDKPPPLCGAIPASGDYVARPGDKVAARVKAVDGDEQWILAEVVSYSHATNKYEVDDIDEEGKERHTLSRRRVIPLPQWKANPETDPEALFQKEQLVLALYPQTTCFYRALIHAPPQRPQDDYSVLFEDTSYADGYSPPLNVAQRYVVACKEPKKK
Description: Prior to protein immobilization all proteins were dialyzed against HBS-E (10 mM Hepes, 150 mM NaCl, 3 mM EDTA) buffer that was previously filtered through a 0.45 µM membrane using dialyze slide according to the manufacturer instruction. Human recombinant proteins peroxiredoxin 2 (Novus Biological NBC1-25855) and CCDC101 (Abcam Ab124547) were immobilized on CM5 (carboxymethylated dextran covalently attached to a gold surface) using the amine coupling method according to manufacturer’s recommendation (Biacore, GE Healthcare). Briefly the CM5 surface was activated with the mixture of EDC/NHS. Recombinant proteins at dilution 1 µg/ml in a corresponding buffer i.e. Peroxiredoxin 2 and CCDC101 in sodium acetate buffer 100 mM (pH 4.9). The control channel was activated with EDC/NHS. […] KH176 andKH176m were solubilized in HBSS at stock solution 1 mM. […] The sensor chip surface was regenerated with 1 mM HCl. The specific binding profiles were obtained after subtracting the response signal from the control empty channel and from blank-buffer injection. The specific binding was calculated using Biaeval 3 software (Biacore, GE Healthcare) with the postulate of 1:1 ligand/analyte interaction.

TrxR1, Trx1 and Prdx2 = target: T2, TrxR1, Trx1 and Prdx2 (Homo sapiens, UniProt P32119); test: TrxR1-Trx1-Prdx2 system biochemical assay (NADPH consumption); conditions: 100 µM compound, H2O2 50 µM, NADPH 75 µM
T2 construct: purchased Novus Biological NBP1-44456 (TrxR1), NBC1-18541 (Trx1), NBC1-25855 (Prdx2)
T2 sequence (P32119 1-198): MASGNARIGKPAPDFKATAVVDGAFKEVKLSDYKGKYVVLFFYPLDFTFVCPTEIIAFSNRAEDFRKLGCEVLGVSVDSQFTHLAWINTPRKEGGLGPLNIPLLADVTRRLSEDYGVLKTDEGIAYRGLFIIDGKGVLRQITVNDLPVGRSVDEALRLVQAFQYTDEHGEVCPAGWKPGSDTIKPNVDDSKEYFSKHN
Description: NADPH consumption measurements were performed according to the method described by Nelson et al.[50] in the presence of TrxR1, Trx1 and Prdx2 (Novus Biological NBP1-44456, NBC1-18541 and NBC1-25855, respectively). The incubations contained TrxR1 0.5 µM, Trx1 5 µM, Prdx2 0.5 µM, H2O2 50 µM, NADPH 75 µM in 25 mM potassium phosphate pH 7, 100 mM ammonium sulphate. The experiments were carried out in 96-wells black plates and in triplicate. Briefly, TrxR1, Trx1, and H2O2 were pre-incubated for 5 min at 25 °C for thermal equilibration. Upon addition of NADPH the initial NADPH auto-fluorescence was recorded for 2 min on a scanning microplate reader (PerkinElmer Enspire; Ex. 340 nm, Em. 482 nm) to insure that less than 10% of NADPH is oxidized in the absence of Prdx2. Ultimately Prdx2 was added to start the enzymatic reaction, which was monitored during 60 minutes. To test the effect of the compounds on NADPH consumption, KH176m and KH176 were added at 100 µM final concentration, after the addition of Prdx2. The NADPH fluorescence was followed in time. […] A parallel reaction without TrxR was performed to quantified non-specific NADPH oxidation and used for background correction.

[3] = Intracellular conversion of KH176 into KH176m (LC-MS/MS); conditions: 24 hours incubation with 3 µM KH176
Description: Cells were seeded at a density of 125 × 10^3 cells/well into 6-wells transparent plates (#657160, Greiner Bio-one) and incubated for 24 h. The culture medium was then replaced with fresh medium containing 3 µM KH176 and the cells were incubated for an additional 24 h. At the end of the treatment time, cells were washed twice with ice-cold PBS (#200120169, Thermo Fischer Scientific) before deprotenization with perchloric acid. The samples were then analyzed with standard LC-MS/MS system (Accela HPLC system, Thermo Fischer Scientific) equipped with a Zorbax Eclipse Plus C18 analytical column (Rapid Resolution HD 1.8 μm; 50 × 2.1 mm, Agilent, USA) and coupled with a UHPLC Guard Zorbax Eclipse Plus C18 pre-column (1.8 µm; 5 × 2.1 mm, Agilent). After separation the eluate was directly passed into a TSQ Vantage tandem mass spectrometer (Thermo Fischer Scientific) equipped with an electro-spray ionization source. Detection of the compounds was based on isolation of the protonated molecular ion, [M + H]+, and subsequent MS/MS fragmentations and selected reaction monitoring were performed. Proprietary compounds of Khondrion were used as internal standards.

SMILES | EC50 [1] [nM] | Safety in Phase 1 ([2]; healthy adult male volunteers, NCT02544217) | Pharmacokinetic properties in Phase 1 ([2]; human, in vivo) | Binding to CCDC101 (CCDC101) | Effect on NADPH consumption (TrxR1, Trx1 and Prdx2) | Ratio KH176m/KH176 in cells [3]
Cc1c(C)c2c(c(C)c1O)CC[C@@](C)(C(=O)N[C@@H]1CCCNC1)O2.Cl [KH176, (S)-6-hydroxy-2,5,7,8-tetramethyl-N-((R)-piperidin-3-yl)chroman-2-carboxamide hydrochloride] | 35 to 270 | acceptable safety | good pharmacokinetic properties |  |  | 
CC1=C(C)C(=O)C(CC[C@](C)(O)C(=O)N[C@@H]2CCCNC2)=C(C)C1=O [KH176m] |  |  |  | no binding | significantly accelerate the consumption of NADPH | 0.48
